From PubChem BioAssay AID248 (DTP/NCI, 2004)
“And” between values parts separate entries of the source, which are not always exact repeats. Identical values can stand only once. Toxic doses and inconclusive results are not listed. Cut-off read from the data, not from the text of the source: active = T/C of 150% or more; inactive = T/C below 125%.

System: L1210 leukemia ip in BDF1 mice, survival T/C
Experiment: NCI In Vivo Anticancer Drug Screen. Data for tumor model L1210 Leukemia (intraperitoneal) in B6D2F1 (BDF1) mice
Settings: endpoint: mean survival time, higher = longer survival
In short: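 Ratio derived from survival: compound-dosed mice over vehicle-dosed mice, all bearing a transplantable tumor.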

[1] = dose: 100.0 mg/kg/injection, schedule: Q01DX009 (ip), vehicle: Klucel (hydroxypropylcellulose) (HPC)
[2] = dose: 100.0 mg/kg/injection, schedule: Q04DX003 (ip), vehicle: Klucel (hydroxypropylcellulose) (HPC)
[3] = dose: 200.0 mg/kg/injection, schedule: Q04DX003 (ip), vehicle: Klucel (hydroxypropylcellulose) (HPC)
[4] = dose: 400.0 mg/kg/injection, schedule: Q04DX003 (ip), vehicle: Klucel (hydroxypropylcellulose) (HPC)
[5] = dose: 100.0 mg/kg/injection, schedule: Q01DX001 (ip), vehicle: saline
[6] = dose: 200.0 mg/kg/injection, schedule: Q01DX001 (ip), vehicle: saline
[7] = dose: 75.0 mg/kg/injection, schedule: Q01DX001 (ip), vehicle: saline
[8] = dose: 150.0 mg/kg/injection, schedule: Q01DX001 (ip), vehicle: saline

Measured: T/C

CC(=O)Nc1c(Cl)cc(-c2ccc(F)cc2)cc1Cl
inactive: dose: 15.0 mg/kg/injection, schedule: Q01DX001 (ip), vehicle: carboxymethylcellulose (CMC) 96 % of control | dose: 30.0 mg/kg/injection, schedule: Q01DX001 (ip), vehicle: carboxymethylcellulose (CMC) 94 % of control | dose: 60.0 mg/kg/injection, schedule: Q01DX001 (ip), vehicle: carboxymethylcellulose (CMC) 98 % of control

O=C1C=CC(=O)C2C3CC(C4OC34)C12 (stereo not drawn)
inactive: dose: 25.0 mg/kg/injection, schedule: Q01DX009 (ip), vehicle: saline with Tween-80 102 % of control | dose: 50.0 mg/kg/injection, schedule: Q01DX009 (ip), vehicle: saline with Tween-80 94 % of control | dose: 100.0 mg/kg/injection, schedule: Q01DX009 (ip), vehicle: saline with Tween-80 100 % of control and 89 % of control

Cc1ccc(N)cn1
inactive: dose: 25.0 mg/kg/injection, schedule: Q01DX009 (ip), vehicle: Klucel (hydroxypropylcellulose) (HPC) 97 % of control | dose: 25.0 mg/kg/injection, schedule: Q04DX003 (ip), vehicle: Klucel (hydroxypropylcellulose) (HPC) 102 % of control | dose: 50.0 mg/kg/injection, schedule: Q01DX009 (ip), vehicle: Klucel (hydroxypropylcellulose) (HPC) 100 % of control | dose: 50.0 mg/kg/injection, schedule: Q04DX003 (ip), vehicle: Klucel (hydroxypropylcellulose) (HPC) 101 % of control | [1] 90 % of control | [2] 98 % of control

c1ccc(C2=NC(c3ccccc3)(C3(c4ccccc4)SCCCS3)CO2)cc1 (stereo not drawn)
inactive: dose: 75.0 mg/kg/injection, schedule: Q01DX009 (ip), vehicle: Klucel (hydroxypropylcellulose) (HPC) 101 % of control | [2] 102 % of control | dose: 150.0 mg/kg/injection, schedule: Q01DX009 (ip), vehicle: Klucel (hydroxypropylcellulose) (HPC) 98 % of control | [3] 105 % of control | dose: 300.0 mg/kg/injection, schedule: Q01DX009 (ip), vehicle: Klucel (hydroxypropylcellulose) (HPC) 90 % of control | [4] 102 % of control

CCCCCCCCCC(=O)N/N=C/c1c[nH]c2ccccc12
inactive: [1] 95 % of control | dose: 200.0 mg/kg/injection, schedule: Q01DX009 (ip), vehicle: Klucel (hydroxypropylcellulose) (HPC) 114 % of control | dose: 400.0 mg/kg/injection, schedule: Q01DX009 (ip), vehicle: Klucel (hydroxypropylcellulose) (HPC) 100 % of control

CC1=Nc2ccccc2N=C(C)C1
inactive: [5] 107 % of control | dose: 100.0 mg/kg/injection, schedule: Q04DX003 (ip), vehicle: saline with Tween-80 93 % of control | [6] 102 % of control | dose: 200.0 mg/kg/injection, schedule: Q04DX003 (ip), vehicle: saline with Tween-80 96 % of control

Cc1ccc2c(c1)S(=O)(=O)N(C)C(c1ccccc1)=C2
inactive: dose: 100.0 mg/kg/injection, schedule: Q01DX001 (ip), vehicle: steriod suspending solution 96 % of control | dose: 200.0 mg/kg/injection, schedule: Q01DX001 (ip), vehicle: steriod suspending solution 105 % of control | dose: 400.0 mg/kg/injection, schedule: Q01DX001 (ip), vehicle: steriod suspending solution 86 % of control

COc1cc(NCC(O)C(O)C(O)CO)c([N+](=O)[O-])cc1OC (stereo not drawn)
inactive: [5] 92 % of control | [6] 99 % of control | dose: 400.0 mg/kg/injection, schedule: Q01DX001 (ip), vehicle: saline 100 % of control

CCOC(CN=CN(C)C)OCC
inactive: dose: 100.0 mg/kg/injection, schedule: Q04DX003 (ip), vehicle: saline 94 % of control | dose: 200.0 mg/kg/injection, schedule: Q04DX003 (ip), vehicle: saline 105 % of control | dose: 400.0 mg/kg/injection, schedule: Q04DX003 (ip), vehicle: saline 97 % of control

Nc1ccc(O)cc1
inactive: dose: 12.5 mg/kg/injection, schedule: Q04DX003 (ip), vehicle: saline 92 % of control | dose: 25.0 mg/kg/injection, schedule: Q04DX003 (ip), vehicle: saline 95 % of control | dose: 35.0 mg/kg/injection, schedule: Q01DX Z (ip), vehicle: acid diluted with saline 92 % of control | dose: 35.0 mg/kg/injection, schedule: Q01DX Z (ip), vehicle: other 97 % of control | dose: 40.0 mg/kg/injection, schedule: Q01DX Z (ip), vehicle: methylcellulose (MC) 113 % of control | dose: 53.0 mg/kg/injection, schedule: Q01DX010 (sc), vehicle: saline 94 % of control | dose: 53.0 mg/kg/injection, schedule: Q01DX Z (ip), vehicle: acid diluted with saline 104 % of control | dose: 53.0 mg/kg/injection, schedule: Q01DX Z (ip), vehicle: other 103 % of control | dose: 53.0 mg/kg/injection, schedule: Q01DX Z (ip), vehicle: saline 98 % of control | dose: 80.0 mg/kg/injection, schedule: Q01DX Z (ip), vehicle: acid diluted with saline 108 % of control | dose: 80.0 mg/kg/injection, schedule: Q01DX Z (ip), vehicle: other 101 % of control | dose: 80.0 mg/kg/injection, schedule: Q01DX Z (ip), vehicle: saline 114 % of control | dose: 120.0 mg/kg/injection, schedule: Q01DX010 (sc), vehicle: saline 98 % of control | dose: 120.0 mg/kg/injection, schedule: Q01DX Z (ip), vehicle: acid diluted with saline 115 % of control | dose: 120.0 mg/kg/injection, schedule: Q01DX Z (ip), vehicle: other 114 % of control | dose: 120.0 mg/kg/injection, schedule: Q01DX Z (ip), vehicle: saline 112 % of control | dose: 160.0 mg/kg/injection, schedule: Q01DX Z (oral), vehicle: methylcellulose (MC) 113 % of control | dose: 212.0 mg/kg/injection, schedule: Q01DX013 (oral), vehicle: saline 109 % of control | dose: 320.0 mg/kg/injection, schedule: Q01DX Z (ip), vehicle: methylcellulose (MC) 107 % of control | dose: 320.0 mg/kg/injection, schedule: Q01DX Z (oral), vehicle: methylcellulose (MC) 108 % of control

C[N+]1(Cc2ccccc2)C2CCC1C(=O)N(Cc1ccccc1)C2=O (stereo not drawn)
inactive: [7] 103 % of control | [8] 116 % of control

CCOC(=O)c1ccc(N=NN(C)C)cc1
inactive: dose: 30.0 mg/kg/injection, schedule: Q01DX Z (ip), vehicle: carboxymethylcellulose (CMC) 97 % of control and 102 % of control | dose: 60.0 mg/kg/injection, schedule: Q01DX Z (ip), vehicle: carboxymethylcellulose (CMC) 107 % of control | dose: 90.0 mg/kg/injection, schedule: Q01DX Z (ip), vehicle: carboxymethylcellulose (CMC) 110 % of control and 124 % of control

Fc1ccc2[nH]c3cc4ccncc4cc3c2c1
inactive: dose: 50.0 mg/kg/injection, schedule: Q04DX002 (ip), vehicle: saline 101 % of control | dose: 100.0 mg/kg/injection, schedule: Q04DX002 (ip), vehicle: saline 94 % of control | dose: 200.0 mg/kg/injection, schedule: Q04DX002 (ip), vehicle: saline 94 % of control

CCN(CC)C(=O)OCCN1C(=O)C2C3CCC(O3)C2C1=O (stereo not drawn)
inactive: [2] 93 % of control | [3] 92 % of control | [4] 93 % of control

OC(CN1CCCCC1)c1ccc2oc3ccccc3c2c1 (stereo not drawn)
inactive: dose: 100.0 mg/kg/injection, schedule: Q04DX002 (ip), vehicle: Klucel (hydroxypropylcellulose) (HPC) 110 % of control | dose: 200.0 mg/kg/injection, schedule: Q04DX002 (ip), vehicle: Klucel (hydroxypropylcellulose) (HPC) 92 % of control

CNC(=S)n1cncn1
inactive: dose: 100.0 mg/kg/injection, schedule: Q01DX009 (ip), vehicle: saline 91 % of control | dose: 200.0 mg/kg/injection, schedule: Q01DX009 (ip), vehicle: saline 108 % of control | dose: 400.0 mg/kg/injection, schedule: Q01DX009 (ip), vehicle: saline 92 % of control

CC(C)OC(=O)c1cc(O)c(O)c(O)c1
inactive: [7] 102 % of control | [8] 94 % of control | dose: 300.0 mg/kg/injection, schedule: Q01DX001 (ip), vehicle: saline 94 % of control

N#Cc1ccc(Cl)cc1.N#Cc1ccc(Cl)cc1.[Cl][Pt][Cl]
inactive: dose: 6.25 mg/kg/injection, schedule: Q04DX003 (ip), vehicle: water 109 % of control | dose: 12.5 mg/kg/injection, schedule: Q04DX003 (ip), vehicle: water 105 % of control | dose: 25.0 mg/kg/injection, schedule: Q04DX003 (ip), vehicle: water 107 % of control | dose: 50.0 mg/kg/injection, schedule: Q04DX003 (ip), vehicle: water 109 % of control

CC(=O)Nc1nnc(/C=C/c2ccc([N+](=O)[O-])o2)s1
inactive: [2] 87 % of control | [3] 89 % of control | [4] 100 % of control

O=C1c2ccccc2C(=O)c2cc(/C=N/Nc3ccc([N+](=O)[O-])cc3[N+](=O)[O-])ccc21
inactive: dose: 100.0 mg/kg/injection, schedule: Q01DX001 (ip), vehicle: Klucel (hydroxypropylcellulose) (HPC) 93 % of control | dose: 200.0 mg/kg/injection, schedule: Q01DX001 (ip), vehicle: Klucel (hydroxypropylcellulose) (HPC) 90 % of control | dose: 400.0 mg/kg/injection, schedule: Q01DX001 (ip), vehicle: Klucel (hydroxypropylcellulose) (HPC) 86 % of control
